Test results taken from US10392394B2, “Antimicrobial compounds and methods” (Board of Supervisors of Louisiana State University and …, priority 2013, dated 2019).

Assays:
[1] = tested on: Human gingival fibroblasts; experiment: Biocompatibility (cytotoxicity) test, Calcein-AM cell survival; assay type: cell-based; details: 24 h exposure, FIG. 1
Procedure: Synthesized monomers (Formulas 4-6, 10, and 11) and methacryloyloxyundecyldi-methylbenzylammonium bromide (Formula 1) were tested for biocompatibility (cytotoxicity). Human gingival fibroblasts were obtained from extracted molars from patients with healthy gingival following informed consent as prescribed in an approved IRB protocol. Gingival fibroblasts were maintained in MEM containing 10% fetal calf serum (FCS) and 200 units/mL penicillin and 200 μg/mL streptomycin. Cells were grown in 48-well plates for 24 h prior to exposure to the monomers. The growth media containing 0.1% dimethylsulfoxide (DMSO) were supplemented with 10^−4 M, 10^−5 M, 10^−6 M and 10^−7 M concentrations of five newly synthesized exemplary monomers (Formulas 4-6, 10, and 11) and added to the cells for 24 h. MEM served as a control for cytotoxicity. Cell survival was visualized using a fluorescent esterase substrate (Calcein-AM) and a inverted fluorescent microscope. Cell survival was quantified using a fluorescent multi-well plate reader.

[2] = tested on: Streptococcus mutans, Lactobacillus casei, Staphylococcus aureus and Pseudomonas aeruginosa; experiment: Antimicrobial activity, automated growth curve analysis; assay type: cell-based; details: 10^−4 M-10^−7 M in BMGS medium, triplicate, FIG. 2
Procedure: Evaluation of antimicrobial activities of Formula 1 and synthesized monomers (Formulas 4-6, 10, and 11) was also performed. Streptococcus mutans was grown in brain heart infusion (BHI, Difco Laboratories, Detroit, Mich.), Lactobacillus casei was grown in MRS medium (Difco), Staphylococcus aureus and Pseudomonas aeruginosa were grown in Trypticase Soy Broth (TSB; Difco). They all were grown under static conditions in an 37° C. aerobic chamber with (for S. mutans only) or without 5% CO2. For antimicrobial assay, these bacteria were cultivated using a modified semi-defined biofilm medium (BM) with glucose (18 mM) and sucrose (2 mM) (BMGS) as the supplemental carbohydrate sources. Antimicrobial efficacy was measured using an automated growth curve analysis system. Overnight cultures were transferred to fresh medium and allowed to grow to mid-exponential phase, when they were properly diluted in BMGS and allowed to grow in the automated growth curve analysis system with and without inclusion of Formula 1 and synthesized monomers (Formulas 4-6, 10, and 11). All antimicrobial monomers were dissolved in DMSO at 10^−2 M concentration and serial dilutions were made to achieve the desired concentrations (10^−4 M-10^−7 M). All experiments were run in triplicate.

[3] = concentrations of 10^−5 M and below

C=C(C)C(=O)OCC(COC(=O)C(=C)C)OC(=O)CCCCCCCCC[N+]12CCN(CC1)CC2.[Br-] [Formula 4, 2-(1,3-dimethacryloyloxy)propyl 10-(1-(1-azonia-4-azabicylco[2.2.2]octyl))decanoate bromide]
cytotoxicity (cell survival) ([1]; 10^−4 M concentration): little cytotoxicity

C=C(C)C(=O)OCC(COC(=O)C(=C)C)OC(=O)CCCCCCCCCCCCCCC[N+]12CCN(CC1)CC2.[Br-] [Formula 5, 2-(1,3-dimethacryloyloxy)propyl 16-(1-(1-azonia-4-azabicylco[2.2.2]octyl))hexadecanoate bromide]
antibacterial activity [2]: Highest levels of antibacterial activity
cytotoxicity (cell survival) ([1]; 10^−4 M concentration): significant cell death
cytotoxicity (cell survival) [1, 3]: good biocompatibility

C=C(C)C(=O)OCC(COC(=O)C(=C)C)OC(=O)CCCCCCCCCCCCCCC[N+](C)(C)Cc1ccccc1 [Formula 6, 2-(1,3-dimethacryloyloxy)propyl 16-N,N-dimethylbenzylammoniumhexadecanoate bromide]
antibacterial activity [2]: Highest levels of antibacterial activity
cytotoxicity (cell survival) ([1]; 10^−4 M concentration): significant cell death
cytotoxicity (cell survival) [1, 3]: good biocompatibility

C=C(C)C(=O)OCCCCCCCCCCCCCCCC[N+]12CCN(CC1)CC2.[Br-] [Formula 11, 16-(1-azonia-4-azabicylco[2.2.2]octyl)hexadecylmethacrylate bromide]
cytotoxicity (cell survival) ([1]; 10^−4 M concentration): little cytotoxicity
